# Assay results as given in patent US20080300253A1, “TREATMENT OF INFLAMMATORY DISORDERS WITH PRAZIQUANTEL” (Gencross, Inc., priority 2005, published 2008).
# Like-named read-outs stand apart in the source and are kept apart here.
# How the values were obtained:
# TNF-α [1] = assay: TNF-α amount in LPS-treated differentiated THP-1 cells (Western blotting); type: cell-based, human
# Procedure: (§1) The THP-1 human monocytic cell line was treated with 200 nM phorbol myristate acetate (PMA) for 24 hours, resulting in differentiation into functional macrophages. Differentiated THP-1 cells were treated with 2 μg/ml lipopolysaccharide (LPS), and total proteins or nuclear proteins were isolated 0.5, 1, 2, and 3 hours later. In some differentiated THP-1 cell cultures, a combination of LPS and 100 nM praziquantel was added prior to isolation of total and nuclear proteins at the same time points. Both total protein and nuclear protein were quantitated by Western blotting. […] Thus, praziquantel inhibits LPS-induced NF-κB activity by preventing its translocation to the nucleus where it exerts its transcriptional activation effects. Neither α-tubulin nor lamin B protein was affected by either LPS or praziquantel treatment (FIG. 1).
# ATF-2 [2] = assay: Phosphorylated ATF-2 in LPS-treated differentiated THP-1 cells (Western blotting); type: cell-based, human; details: 2 μg/ml LPS + 100 nM praziquantel vs LPS alone
# Procedure: as §1
# ATF-2 [3] = assay: ATF-2 phosphorylation in blood mononuclear cells of LPS/D-galactosamine-treated mice (western blotting); type: in vivo; details: 50 mg/kg oral 30 minutes prior to LPS/D-galactosamine; blood 3 hours later
# Procedure: (§2) Mice were orally administered 50 mg/kg praziquantel 30 minutes prior to ip injection of 8 ng LPS and 8 mg D-galactosamine. Blood samples were taken 3 hours later, and mononuclear cells were isolated using Histopaque (Sigma Aldrich, cat #1080). Protein levels and their phosphorylation states were then determined by western blotting.
# [4] = dogs dosed with 100 mg/kg; cited from earlier work
# p38 [5] = assay: Phosphorylated p38 in LPS-treated differentiated THP-1 cells (Western blotting); type: cell-based, human; details: 2 μg/ml LPS + 100 nM praziquantel vs LPS alone
# Procedure: as §1
# [6] = cats dosed with 100 mg/kg; cited from earlier work
# IKK-β = IKK-β phosphorylation in blood mononuclear cells of LPS/D-galactosamine-treated mice (western blotting); type: in vivo; details: 50 mg/kg oral 30 minutes prior to LPS/D-galactosamine; blood 3 hours later
# Procedure: (§3) Mice were orally administered 50 mg/kg praziquantel 30 minutes prior to ip injection of 8 ng LPS and 8 mg D-galactosamine. Blood samples were taken 3 hours later, and mononuclear cells were isolated using Histopaque (Sigma Aldrich, cat #1080). Protein levels and their phosphorylation states were then determined by western blotting. […] The amount of IKK-α and IKK-β proteins and their phosphorylation states were also examined. […] IKK-α and IKK-β are known to phosphorylate IκB, and phosphorylated IκB is degraded by a protease.
# IκB = IκB amount and phosphorylation in blood mononuclear cells of LPS/D-galactosamine-treated mice (western blotting); type: in vivo; details: 50 mg/kg oral 30 minutes prior to LPS/D-galactosamine; blood 3 hours later
# Procedure: as §3
# TNF-α [7] = assay: Mouse collagen-induced arthritis model: serum TNF-α; type: in vivo, DBA/1 mice; details: 50 mg/kg oral suspension in saline, once or twice a day for three weeks; vs vehicle
# Procedure: (§4) Male DBA/1 mice, obtained from the Jackson Laboratory, are maintained in groups of three to five in polycarbonate cages and fed standard mouse chow and water ad libitum. The environment is made specifically pathogen-free. Mice are immunized with bovine type II collagen (CII), at 8 to 12 weeks of age, as described previously (Arthritis Rheum. 2002, 46:1109, 2002; J. Immunol., 5846, 2005). Briefly, CII is dissolved in 0.05N acetic acid at 2 mg/ml, and emulsified (1:1 ratio) with complete Freund's adjuvant (CFA) at 4° C. The mice receive 0.1 ml of the emulsion, containing 100 μg of CII, in the base of the tail as a primary immunization. Booster injections are given into the footpad with 50 μg of CII, similarly dissolved and emulsified with CFA (1:1), 14 days after the primary immunization. CIA develops as early as 3 wk, peaks at 5-7 wk, and thereafter spontaneously resolves at 10 wk. Mice are divided into two groups. One group is administered vehicle (saline), and the other group is administered an oral suspension of 50 mg/kg praziquantel in saline starting 2 weeks after the CII booster injection. Praziquantel administration is continued once or twice a day for three weeks after the initial administration.
# (§5) TNF-α and p38 levels in blood are then assayed as described above, and the incidence and severity of arthritis in the two groups of mice are determined by visual inspection.
# [8] = tested on: LPS/D-galactosamine-induced acute sepsis; assay: Survival of LPS/D-galactosamine-treated mice (acute sepsis); type: in vivo, C57BL6 mice
# Procedure: An acute mouse in vivo sepsis model was used to determine the ability of praziquantel to reduce TNF-α levels. C57BL/6 mice were used which were 7 to 8 weeks old and weighed 25 to 30 g. Fodder (Daehan Biolink) and water were administered ad libitum, and the temperature and relative humidity of the nursery cage were maintained at 21-24° C. and 40-80%, respectively. In addition, the nursery cage light was controlled to switch between day and night every 12 hours. Eight to ten mice were assigned to each experimental group. Each mouse was intraperitoneally (ip) administered 8 ng LPS (Sigma Aldrich) and 8 mg D-galactosamine (SIGMA), each dissolved in 100 μl distilled water, to induce acute sepsis. In order to investigate the effect of praziquantel on TNF-α levels in blood, praziquantel was orally administered to each experimental group at dosages of 12.5 mg/kg, 25 mg/kg or 50 mg/kg, 30 minutes prior to treatment with LPS/D-galactosamine. The blood was sampled 1, 3 and 5 hours after treatment with praziquantel. Serum was isolated from the sampled blood, and the amount of TNF-α was measured by ELISA (R&D Systems, Minneapolis, Minn.).
# Female C57BL6 mice (8-10 per experimental group) were treated as described above to induce acute sepsis, and the same doses of praziquantel were administered 30 minutes prior to treatment with LPS/D-galactosamine.
# NF-κB = NF-κB total level and nuclear translocation in LPS-treated differentiated THP-1 cells (Western blotting); type: cell-based, human; details: 2 μg/ml LPS + 100 nM praziquantel
# Procedure: as §1
# [9] = rats; cited from earlier work
# [10] = tested on: collagen-induced arthritis; assay: Mouse collagen-induced arthritis model: severity of arthritis by visual inspection; type: in vivo, DBA/1 mice; details: 50 mg/kg oral suspension in saline, once or twice a day for three weeks; vs vehicle
# Procedure: as §4, §5
# IKK α/β = assay: Phosphorylated IKK α/β in LPS-treated differentiated THP-1 cells (Western blotting); type: cell-based, human; details: 2 μg/ml LPS + 100 nM praziquantel vs LPS alone
# Procedure: as §1
# p38 [11] = assay: Mouse collagen-induced arthritis model: serum p38; type: in vivo, DBA/1 mice; details: 50 mg/kg oral suspension in saline, once or twice a day for three weeks; vs vehicle
# Procedure: as §4, §5
# IKK-α = IKK-α phosphorylation in blood mononuclear cells of LPS/D-galactosamine-treated mice (western blotting); type: in vivo; details: 50 mg/kg oral 30 minutes prior to LPS/D-galactosamine; blood 3 hours later
# Procedure: as §3
# p38 kinase = p38 kinase amount and phosphorylation in blood mononuclear cells of LPS/D-galactosamine-treated mice (western blotting); type: in vivo; details: 50 mg/kg oral 30 minutes prior to LPS/D-galactosamine; blood 3 hours later
# Procedure: as §2
# TNF-α [12] = assay: Serum TNF-α (ELISA) in acute mouse sepsis model (LPS/D-galactosamine); type: in vivo, C57BL/6 mice; details: 12.5, 25 or 50 mg/kg oral, 30 minutes prior to LPS/D-galactosamine
compound,measurement,setting,value
"O=C(C1CCCCC1)N1CC(=O)N2CCc3ccccc3C2C1 (stereo not drawn) [Praziquantel, 2-(cyclohexylcarbonyl)-1,2,3,6,7,11β-hexahydro-4H-pyrazino[2,1-α]isoquinoline-4-one]",amount of TNF-α,"TNF-α [1]; 2 μg/ml LPS + 100 nM praziquantel vs LPS alone, one, two and three hours",much less TNF-α
same,amount of TNF-α,"TNF-α [1]; 2 μg/ml LPS + 100 nM praziquantel, two and three hour time points",barely detectable
same,active (phosphorylated) form of ATF-2,ATF-2 [2],Significant reductions
same,phosphorylation of ATF-2,ATF-2 [3],inhibited
same,adverse effects,[4],No adverse effects
same,active (phosphorylated) form of p38,p38 [5],Significant reductions
same,adverse effects,[6],No adverse effects
same,phosphorylation of IKK-β,IKK-β,inhibited
same,amount of IκB protein,IκB,did not decrease
same,phosphorylation of IκB,IκB,inhibited
same,serum levels of TNF-α,TNF-α [7],significantly reduced
same,Survival (# of mice),"[8]; 12.5 mg/kg oral, 0 h",(30/30)
same,Survival rate,"[8]; 12.5 mg/kg oral, 0 h",100%
same,Survival (# of mice),"[8]; 12.5 mg/kg oral, 5 h",(30/30)
same,Survival rate,"[8]; 12.5 mg/kg oral, 5 h",100%
same,Survival (# of mice),"[8]; 12.5 mg/kg oral, 6 h",(26/30)
same,Survival rate,"[8]; 12.5 mg/kg oral, 6 h",86%
same,Survival (# of mice),"[8]; 12.5 mg/kg oral, 7 h",(17/30)
same,Survival rate,"[8]; 12.5 mg/kg oral, 7 h",57%
same,Survival (# of mice),"[8]; 12.5 mg/kg oral, 8 h",(15/30)
same,Survival rate,"[8]; 12.5 mg/kg oral, 8 h",50%
same,Survival (# of mice),"[8]; 12.5 mg/kg oral, 9 h",(13/30)
same,Survival rate,"[8]; 12.5 mg/kg oral, 9 h",43%
same,Survival (# of mice),"[8]; 12.5 mg/kg oral, 10 h",(4/30)
same,Survival rate,"[8]; 12.5 mg/kg oral, 10 h",14%
same,Survival (# of mice),"[8]; 12.5 mg/kg oral, 11 h",(4/30)
same,Survival rate,"[8]; 12.5 mg/kg oral, 11 h",14%
same,Survival (# of mice),"[8]; 12.5 mg/kg oral, 12 h",(4/30)
same,Survival rate,"[8]; 12.5 mg/kg oral, 12 h",14%
same,Survival (# of mice),"[8]; 12.5 mg/kg oral, >24 h",(4/30)
same,Survival rate,"[8]; 12.5 mg/kg oral, >24 h",14%
same,Survival (# of mice),"[8]; 25 mg/kg oral, 0 h",(30/30)
same,Survival rate,"[8]; 25 mg/kg oral, 0 h",100%
same,Survival (# of mice),"[8]; 25 mg/kg oral, 5 h",(30/30)
same,Survival rate,"[8]; 25 mg/kg oral, 5 h",100%
same,Survival (# of mice),"[8]; 25 mg/kg oral, 6 h",(28/30)
same,Survival rate,"[8]; 25 mg/kg oral, 6 h",93%
same,Survival (# of mice),"[8]; 25 mg/kg oral, 7 h",(21/30)
same,Survival rate,"[8]; 25 mg/kg oral, 7 h",71%
same,Survival (# of mice),"[8]; 25 mg/kg oral, 8 h",(21/30)
same,Survival rate,"[8]; 25 mg/kg oral, 8 h",71%
same,Survival (# of mice),"[8]; 25 mg/kg oral, 9 h",(21/30)
same,Survival rate,"[8]; 25 mg/kg oral, 9 h",71%
same,Survival (# of mice),"[8]; 25 mg/kg oral, 10 h",(21/30)
same,Survival rate,"[8]; 25 mg/kg oral, 10 h",71%
same,Survival (# of mice),"[8]; 25 mg/kg oral, 11 h",(21/30)
same,Survival rate,"[8]; 25 mg/kg oral, 11 h",71%
same,Survival (# of mice),"[8]; 25 mg/kg oral, 12 h",(19/30)
same,Survival rate,"[8]; 25 mg/kg oral, 12 h",64%
same,Survival (# of mice),"[8]; 25 mg/kg oral, >24 h",(19/30)
same,Survival rate,"[8]; 25 mg/kg oral, >24 h",64%
same,Survival (# of mice),"[8]; 50 mg/kg oral, 0 h",(30/30)
same,Survival rate,"[8]; 50 mg/kg oral, 0 h",100%
same,Survival (# of mice),"[8]; 50 mg/kg oral, 5 h",(30/30)
same,Survival rate,"[8]; 50 mg/kg oral, 5 h",100%
same,Survival (# of mice),"[8]; 50 mg/kg oral, 6 h",(28/30)
same,Survival rate,"[8]; 50 mg/kg oral, 6 h",93%
same,Survival (# of mice),"[8]; 50 mg/kg oral, 7 h",(28/30)
same,Survival rate,"[8]; 50 mg/kg oral, 7 h",93%
same,Survival (# of mice),"[8]; 50 mg/kg oral, 8 h",(28/30)
same,Survival rate,"[8]; 50 mg/kg oral, 8 h",93%
same,Survival (# of mice),"[8]; 50 mg/kg oral, 9 h",(28/30)
same,Survival rate,"[8]; 50 mg/kg oral, 9 h",93%
same,Survival (# of mice),"[8]; 50 mg/kg oral, 10 h",(28/30)
same,Survival rate,"[8]; 50 mg/kg oral, 10 h",93%
same,Survival (# of mice),"[8]; 50 mg/kg oral, 11 h",(28/30)
same,Survival rate,"[8]; 50 mg/kg oral, 11 h",93%
same,Survival (# of mice),"[8]; 50 mg/kg oral, 12 h",(28/30)
same,Survival rate,"[8]; 50 mg/kg oral, 12 h",93%
same,Survival (# of mice),"[8]; 50 mg/kg oral, >24 h",(28/30)
same,Survival rate,"[8]; 50 mg/kg oral, >24 h",93%
same,total NF-κB levels,NF-κB,not affected
same,translocation of NF-κB to the nucleus,NF-κB; nuclear fraction,did not occur
same,LD50,[9],"2,000-3,000 mg/kg"
same,severity of arthritis,[10],greatly reduced
same,active (phosphorylated) form of IKK α/β,IKK α/β,Significant reductions
same,serum levels of p38,p38 [11],significantly reduced
same,phosphorylation of IKK-α,IKK-α,inhibited
same,amount of p38 protein,p38 kinase,did not change
same,phosphorylation of p38 kinase,p38 kinase,inhibited
same,amount of TNF-α in blood serum,TNF-α [12],dose-dependent decrease
